According to PubChem BioAssay AID248 (DTP/NCI, 2004):
Several values for one entry are separate records, joined by “and”; a condition that tells them apart may be missing. Identical values can stand only once. Toxic doses and inconclusive results are not listed. Cut-off read from the data, not from the text of the source: active = T/C of 150% or more; inactive = T/C below 125%.

Test system: L1210 leukemia ip in BDF1 mice, survival T/C
Assay: NCI In Vivo Anticancer Drug Screen. Data for tumor model L1210 Leukemia (intraperitoneal) in B6D2F1 (BDF1) mice
Settings: endpoint: mean survival time, higher = longer survival
Summary of the method: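 Tumor was transplanted into mice, which were then dosed with test compound or vehicle alone. Survival was recorded for each group, and the treated figure was expressed relative to the control figure.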

[1] = dose: 12.5 mg/kg/injection, schedule: Q04DX003 (ip), vehicle: saline
[2] = dose: 25.0 mg/kg/injection, schedule: Q04DX003 (ip), vehicle: saline
[3] = dose: 50.0 mg/kg/injection, schedule: Q04DX003 (ip), vehicle: saline
[4] = dose: 50.0 mg/kg/injection, schedule: Q01DX001 (ip), vehicle: saline
[5] = dose: 100.0 mg/kg/injection, schedule: Q01DX001 (ip), vehicle: saline
[6] = dose: 200.0 mg/kg/injection, schedule: Q01DX001 (ip), vehicle: saline
[7] = dose: 400.0 mg/kg/injection, schedule: Q01DX001 (ip), vehicle: saline
[8] = dose: 200.0 mg/kg/injection, schedule: Q01DX001 (ip), vehicle: carboxymethylcellulose (CMC)
[9] = dose: 400.0 mg/kg/injection, schedule: Q01DX001 (ip), vehicle: carboxymethylcellulose (CMC)
[10] = dose: 100.0 mg/kg/injection, schedule: Q04DX003 (ip), vehicle: saline with Tween-80
[11] = dose: 200.0 mg/kg/injection, schedule: Q04DX003 (ip), vehicle: saline with Tween-80
[12] = dose: 400.0 mg/kg/injection, schedule: Q04DX003 (ip), vehicle: saline with Tween-80
[13] = dose: 100.0 mg/kg/injection, schedule: Q01DX001 (ip), vehicle: carboxymethylcellulose (CMC)
[14] = dose: 100.0 mg/kg/injection, schedule: Q01DX001 (ip), vehicle: saline with Tween-80
[15] = dose: 100.0 mg/kg/injection, schedule: Q04DX002 (ip), vehicle: saline with Tween-80
[16] = dose: 200.0 mg/kg/injection, schedule: Q01DX001 (ip), vehicle: saline with Tween-80
[17] = dose: 200.0 mg/kg/injection, schedule: Q04DX002 (ip), vehicle: saline with Tween-80
[18] = dose: 400.0 mg/kg/injection, schedule: Q04DX002 (ip), vehicle: saline with Tween-80
[19] = dose: 100.0 mg/kg/injection, schedule: Q01DX Z (ip), vehicle: methylcellulose (MC)
[20] = dose: 100.0 mg/kg/injection, schedule: Q01DX009 (ip), vehicle: saline
[21] = dose: 100.0 mg/kg/injection, schedule: Q04DX003 (ip), vehicle: saline

Measured: T/C

COC(=O)c1c2ccccc2[n+](C)c2ccccc12
inactive: [1] 96 % of control | [2] 100 % of control | [3] 102 % of control

O=C(CCCC(=O)NNC(=S)Nc1ccc2ccccc2c1)NNC(=S)Nc1ccc2ccccc2c1
inactive: [4] 98 % of control | [5] 93 % of control | [6] 93 % of control | [7] 90 % of control

O=CCc1ccc2c(c1)OCO2
inactive: [8] 92 % of control | [9] 108 % of control

CCOP(=O)(/N=C1/C2CCC(C2)C1C)OCC (stereo not given)
inactive: [1] 94 % of control | [2] 105 % of control | [3] 102 % of control

COC(=O)c1ccc(=O)n(C/C=C(\C)CCC2OC2(C)C)c1 (stereo not given)
inactive: dose: 100.0 mg/kg/injection, schedule: Q04DX003 (ip), vehicle: water 100 % of control | dose: 200.0 mg/kg/injection, schedule: Q04DX003 (ip), vehicle: water 104 % of control | dose: 400.0 mg/kg/injection, schedule: Q04DX003 (ip), vehicle: water 102 % of control

CCC(C)C(CN)(CCCN1CCCC1)c1cccc2ccccc12 (stereo not given)
inactive: [10] 92 % of control | [11] 89 % of control | [12] 101 % of control

CCSC(SCC)C(OC(C)=O)C(OC(C)=O)C(OC(C)=O)C(CNC(C)=O)OC(C)=O (stereo not given)
inactive: dose: 25.0 mg/kg/injection, schedule: Q04DX003 (ip), vehicle: saline with Tween-80 97 % of control | dose: 50.0 mg/kg/injection, schedule: Q04DX003 (ip), vehicle: saline with Tween-80 94 % of control | [10] 93 % of control and 89 % of control

COc1ccc(COC(=O)Nc2ccccc2C(F)(F)F)cc1
inactive: dose: 100.0 mg/kg/injection, schedule: Q01DX009 (ip), vehicle: gum acacia 89 % of control | dose: 200.0 mg/kg/injection, schedule: Q01DX009 (ip), vehicle: gum acacia 89 % of control

N=C(N)CSSCC(=N)N
inactive: dose: 12.5 mg/kg/injection, schedule: Q04DX003 (ip), vehicle: carboxymethylcellulose (CMC) 92 % of control | dose: 25.0 mg/kg/injection, schedule: Q04DX003 (ip), vehicle: carboxymethylcellulose (CMC) 98 % of control | dose: 50.0 mg/kg/injection, schedule: Q04DX003 (ip), vehicle: carboxymethylcellulose (CMC) 98 % of control

CC(=O)OC1CC2CC(C1)C(C#N)C(=O)NC(=O)C2C#N (stereo not given)
inactive: [13] 102 % of control | [8] 96 % of control | [9] 92 % of control

CCOC(=O)c1ccc(NC(=O)Nc2ccccc2OC)cc1
inactive: [14] 89 % of control | dose: 100.0 mg/kg/injection, schedule: Q01DX009 (ip), vehicle: saline with Tween-80 92 % of control | [15] 94 % of control and 87 % of control | [16] 92 % of control | dose: 200.0 mg/kg/injection, schedule: Q01DX009 (ip), vehicle: saline with Tween-80 95 % of control | [17] 87 % of control and 91 % of control | [11] 87 % of control | dose: 400.0 mg/kg/injection, schedule: Q01DX001 (ip), vehicle: saline with Tween-80 86 % of control | dose: 400.0 mg/kg/injection, schedule: Q01DX009 (ip), vehicle: saline with Tween-80 87 % of control | [18] 87 % of control | [12] 92 % of control

Cc1cc2c(=O)[nH]c(N)nc2nc1C
inactive: [19] 95 % of control | dose: 200.0 mg/kg/injection, schedule: Q01DX Z (ip), vehicle: methylcellulose (MC) 94 % of control

C=CC1CN2CCC1CC2C(=O)c1ccnc2ccccc12 (stereo not given)
inactive: [4] 101 % of control | [5] 104 % of control | [6] 106 % of control | [7] 98 % of control

COCCNP(=O)(OC(C)C)OC(C)C
inactive: [20] 97 % of control | dose: 200.0 mg/kg/injection, schedule: Q01DX009 (ip), vehicle: saline 92 % of control | dose: 400.0 mg/kg/injection, schedule: Q01DX009 (ip), vehicle: saline 94 % of control

CCC(C)C(C(=O)OC1CCN(C)CC1)c1ccccc1 (stereo not given)
inactive: [2] 102 % of control | dose: 50.0 mg/kg/injection, schedule: Q01DX009 (ip), vehicle: saline 105 % of control | [3] 96 % of control | [20] 98 % of control | [21] 97 % of control and 108 % of control

CN(C)C(=O)c1cc(C(=O)N(C)C)c[n+](Cc2c(Cl)cccc2Cl)c1
inactive: dose: 18.75 mg/kg/injection, schedule: Q01DX009 (ip), vehicle: saline 95 % of control | dose: 37.5 mg/kg/injection, schedule: Q01DX009 (ip), vehicle: saline 95 % of control | dose: 75.0 mg/kg/injection, schedule: Q01DX001 (ip), vehicle: saline 97 % of control | dose: 75.0 mg/kg/injection, schedule: Q01DX009 (ip), vehicle: saline 94 % of control | dose: 75.0 mg/kg/injection, schedule: Q04DX003 (ip), vehicle: saline 100 % of control | dose: 150.0 mg/kg/injection, schedule: Q01DX001 (ip), vehicle: saline 106 % of control | dose: 150.0 mg/kg/injection, schedule: Q04DX003 (ip), vehicle: saline 96 % of control | dose: 300.0 mg/kg/injection, schedule: Q01DX001 (ip), vehicle: saline 104 % of control

Cc1ncc2c[n+]([O-])ccn12
inactive: [21] 97 % of control | dose: 200.0 mg/kg/injection, schedule: Q04DX003 (ip), vehicle: saline 98 % of control

Nc1nc(N)nc(-c2ccccc2NC(=O)c2ccccc2[N+](=O)[O-])n1
inactive: dose: 100.0 mg/kg/injection, schedule: Q01DX009 (ip), vehicle: Klucel (hydroxypropylcellulose) (HPC) 91 % of control | dose: 100.0 mg/kg/injection, schedule: Q04DX003 (ip), vehicle: Klucel (hydroxypropylcellulose) (HPC) 101 % of control | dose: 200.0 mg/kg/injection, schedule: Q01DX009 (ip), vehicle: Klucel (hydroxypropylcellulose) (HPC) 96 % of control | dose: 200.0 mg/kg/injection, schedule: Q04DX003 (ip), vehicle: Klucel (hydroxypropylcellulose) (HPC) 105 % of control | dose: 400.0 mg/kg/injection, schedule: Q01DX009 (ip), vehicle: Klucel (hydroxypropylcellulose) (HPC) 90 % of control | dose: 400.0 mg/kg/injection, schedule: Q04DX003 (ip), vehicle: Klucel (hydroxypropylcellulose) (HPC) 100 % of control

O=C(Nc1cccc(C2=NCCN2)c1)c1ccc(-c2ccc(C(=O)Nc3cccc(C4=NCCN4)c3)cc2)cc1
inactive: dose: 50.0 mg/kg/injection, schedule: Q01DX Z (ip), vehicle: carboxymethylcellulose (CMC) 101 % of control | dose: 65.0 mg/kg/injection, schedule: Q01DX Z (ip), vehicle: methylcellulose (MC) 121 % of control | dose: 100.0 mg/kg/injection, schedule: Q01DX Z (ip), vehicle: carboxymethylcellulose (CMC) 120 % of control | [19] 113 % of control | dose: 400.0 mg/kg/injection, schedule: Q01DX Z (ip), vehicle: carboxymethylcellulose (CMC) 117 % of control

CCCCCC(=O)C(CCCC)C(=O)Nc1ccccc1 (stereo not given)
inactive: [13] 96 % of control | [8] 91 % of control | [9] 91 % of control

O=[N+]([O-])/C=C/c1ccc(F)cc1
inactive: dose: 75.0 mg/kg/injection, schedule: Q01DX001 (ip), vehicle: alcohol 100 % of control

O=C1CCN(Cc2ccccc2)C(=S)N1
inactive: [19] 93 % of control

CCn1c2ccccc2c2nnc(NCCCO)nc21
inactive: [15] 96 % of control | dose: 100.0 mg/kg/injection, schedule: Q04DX002 (ip), vehicle: saline 101 % of control | [17] 100 % of control | dose: 200.0 mg/kg/injection, schedule: Q04DX002 (ip), vehicle: saline 97 % of control | [18] 94 % of control | dose: 400.0 mg/kg/injection, schedule: Q04DX002 (ip), vehicle: saline 101 % of control

CC(C)c1ccc(C(c2ccc(C(C)C)cc2)c2ccc(C(C)C)cc2)cc1
inactive: [14] 104 % of control | [16] 91 % of control

CCOC(=O)/C(C(N)=O)=C(/C)C=C(C)C
inactive: dose: 10.0 mg/kg/injection, schedule: Q01DX001 (ip), vehicle: acetone 101 % of control | dose: 20.0 mg/kg/injection, schedule: Q01DX001 (ip), vehicle: acetone 100 % of control
